Laboratory results: paper PMC5645128, “Hydrophobic residues are critical for the helix-forming, hemolytic and bactericidal activities of amphipathic antimicrobial peptide TP4” (PLoS ONE, 2017)
Values after ≈ are worked out from the molar mass of the structure shown. Ends that are not written are not given here.

Legend:
[1] = test system: P. aeruginosa; format: cell-based, Pseudomonas aeruginosa
Protocol: (§1) All the tested microbes were cultured at 37°C except C. albicans (30°C) in respective medium. 90 μl of cell suspension (2–4 x10^6 cfu/ml) mixed with 10 μl of diluted TP4 were loaded in 96-well microplate and incubated overnight with gentle agitation at 100 rpm. The absorbance of TP4-treated bacteria in 96-well plate was measured by SpectraMax 190 microplate reader at 600 nm. The remaining cfu in the TP4-treated sample was determined by plating on agar plates. Minimum inhibitory concentration (MIC) was defined as the lowest AMP concentration in order to keep the solution with the same absorbance as that of culture medium. Minimum bactericidal concentration (MBC) was defined as the lowest AMP concentration able to kill 99.99% of microorganisms. At least three independent experiments were performed to determine the average value with standard deviation.

[2] = test system: S. aureus; format: cell-based, Staphylococcus aureus
Protocol: as §1

[3] = test system: MRSA; format: cell-based, methicillin-resistant Staphylococcus aureus
Protocol: as §1

[4] = test system: C. albicans; format: cell-based, Candida albicans
Protocol: as §1

[5] = test system: mouse red blood cells; format: cell-based
Protocol: For blood collection, cardiac puncture was performed on anesthetized mice (by 3% isoflurane) by a 1 ml heparin-rinsed syringe with a 22 gauge needle. After blood collection, the animals were euthanized by cervical dislocation. Fresh mouse blood was rinsed three times with PBS, centrifuged for 5 minutes at 1500 rpm and re-suspended in PBS (1:30 dilution). The diluted erythrocyte (150 μl) was incubated with TP4-derived peptides at 37°C for 3 hr and centrifuged at 120x g for 5 minutes. The supernatants (100 μl) were transferred to a 96-well plate and the absorbance of released hemoglobin was measured by SpectraMax 190 microplate reader at 414 nm. Percent hemolysis was calculated by the following formula: % hemolysis = [(A414in the peptide solution−A414in PBS)/(A414in 0.1% Triton-X 100 –A414in PBS)]. Zero and 100% hemolysis were determined in PBS and 0.1% Triton-X 100, respectively.
Fig 8 Hemolytic activity of TP4-derived peptides. Diluted mouse red blood cells (150 μl) was incubated with TP4-derived peptides at 37°C for 3 hr and spun at 120 x g for 5 minutes. The supernatants (100 μl) were transferred to a 96-well plate for measurement of released hemoglobulin at 414 nm by the SpectraMax 190 microplate reader.

[6] = format: physicochemical
Protocol: Fig 4 Hydrophobicity and solubility of TP4 in the presence of sarkosyl and LPS. (A) ANS emission spectrum of TP4 in solution containing sarkosyl. TP4 (4 μg) was dissolved in 200 μl of 10 mM sodium phosphate, pH7.4, 0.1 M NaCl, containing various concentrations of sarkosyl (0.075%, w/v, designated as 1x). (B) ANS emission spectrum of TP4 in solution containing LPS. TP4 (4 μg) was dissolved in 200 μl of 10 mM sodium phosphate, pH7.4, containing various amounts of LPS as indicated. ANS was added stepwise to the final concentrations as indicated (lines 1 to 6 at 0, 10, 20, 30, 40 and 50 μM, respectively). Arrows indicate the emission maximum at 470 nm or 520 nm for bound- and free-form ANS, respectively. (C, D) Solubility of TP4 in solution containing either sarkosyl or LPS. TP4 (4 μg) dissolved in 200 μl of respective solution containing sarkosyl or LPS at concentration as indicated was spun at 14,000 x g for 15 min and analyzed by SDS-PAGE/Coomassie blue staining.
Fig 9 OprI-binding ability of TP4-derived peptides. (A) Competition for OprI binding by TP4-derived peptides. […] The gel pellet was analyzed by non-reducing SDS-PAGE/Coomassie blue staining. rOprI, recombinant OprI; S.t, Streptavidin. […] TP4-derived peptides (6 μg each) dissolved in 1x sarkosyl buffer (300 μl) were incubated at 37°C for 10 min, then spun at 14,000 x g for 15 min and analyzed by SDS-PAGE/Coomassie blue staining. […]

Row | Compound | MBC [1] [µg/mL] | MIC [1] [µg/mL] | MBC [2] [µg/mL] | MIC [2] [µg/mL] | MBC [3] [µg/mL] | MIC [3] [µg/mL] | MBC [4] [µg/mL] | MIC [4] [µg/mL] | hemolytic activity compared with wild type TP4 [5] | solubility of TP4 in 1x Sar [6]
1 | CC[C@H](C)[C@H](NC(=O)[C@H](CO)NC(=O)[C@H](Cc1ccccc1)NC(=O)[C@H](CC(C)C)NC(=O)CNC(=O)CNC(=O)[C@@H](NC(=O)[C@@H](NC(=O)[C@H](Cc1c[nH]cn1)NC(=O)[C@H](Cc1c[nH]cn1)NC(=O)[C@@H](NC(=O)[C@@H](N)Cc1ccccc1)[C@@H](C)CC)[C@@H](C)CC)[C@@H](C)CC)C(=O)NCC(=O)N[C@@H](CCCCN)C(=O)N[C@H](C(=O)N[C@H](C(=O)N[C@@H](Cc1c[nH]cn1)C(=O)N[C@@H](CCCNC(=N)N)C(=O)N[C@@H](CC(C)C)C(=O)N[C@H](C(=O)N[C@@H](CCCNC(=N)N)C(=O)N[C@@H](CCCNC(=N)N)C(=O)N[C@@H](CCCNC(=N)N)C(=O)N[C@@H](CCCNC(=N)N)C(=O)N[C@@H](CCCNC(=N)N)C(=O)O)[C@@H](C)CC)[C@@H](C)CC)[C@@H](C)CC [A12I/A15I] | >512 | 512 (≈ 167 µM) | 64 (≈ 20.9 µM) | 16 (≈ 5.22 µM) | 256 (≈ 83.5 µM) | 64 (≈ 20.9 µM) | 128 (≈ 41.8 µM) | 128 (≈ 41.8 µM) | four times higher activity than wild type TP4 | –
2 | AAHHIIGGLFSAGKAIHRLIRRRRR [F1A/I2A] | 256 | 256 | 256 | 128 | >512 | >512 | 128 | 64 | – | –
3 | FIAAIIGGLFSAGKAIHRLIRRRRR [H3A/H4A] | >512 | >512 | 32 | 32 | 256 | 128 | 512 | 512 | – | –
4 | FIHHAAGGLFSAGKAIHRLIRRRRR [I5A/I6A] | 512 | 512 | >512 | >512 | >512 | >512 | 128 | 128 | – | –
5 | FIHHIIGGAASAGKAIHRLIRRRRR [L9A/F10A] | >512 | >512 | >512 | >512 | >512 | >512 | 128 | 128 | – | –
6 | FIHHIIGGLFSAGKAAHRLIRRRRR [I16A] | >512 | 256 | 128 | 64 | 512 | 64 | 128 | 128 | – | –
7 | FIHHIIGGLFSAGKAEHRLIRRRRR [I16E] | >512 | >512 | >512 | >512 | >512 | >512 | 128 | 128 | – | –
8 | FIHHIIGGLFSAGKAIHRHHRRRRR [L19H/I20H] | >512 | 256 | 512 | 128 | >512 | >512 | 128 | 128 | – | –
9 | FIHHIIGGLFSAGKAIHRLIR [dC4] | >512 | >512 | 128 | 64 | 256 | 256 | 256 | 128 | – | –
10 | FIHHIIGGLFSAGKAIHRLIRRR [dC2] | >512 | 512 | 32 | 16 | 32 | 32 | 128 | 128 | – | –
11 | FIHHIIGGLFSAGKAIHRLIRRRRR [TP4] [listing 1 of 2 here] | 128 | 64 | 16 | 8 | 32 | 16 | 128 | 128 | – | –
12 | FIHHIIGGLFSAGKAIHRLIRRRRR [TP4] [listing 2 of 2 here] | – | – | – | – | – | – | – | – | – | less than 80 μM
13 | FIHHIIGGLFSAGKAIHSLIHRRRR [R18S/R21H] | 512 | 256 | 64 | 32 | 32 | 32 | 512 | 256 | – | –
14 | FIHHIIGGLFSAGKARHRLIRRRRR [I16R] | >512 | >512 | >512 | >512 | >512 | >512 | 256 | 128 | – | –
15 | FIHHIIGGLFSVGKHIHRLIRRRRR [A12V/A15H] | 128 | 128 | 16 | 16 | 64 | 32 | 128 | 128 | – | –
16 | FIHHIIGGLFSVGKHIHSLIHGH [TP3, reference compound] | >512 | >512 | 256 | 256 | >512 | 256 | 128 | 128 | – | –
17 | FIHHIIGGLFSVGKHIHSLIHRRRR [VHSH] | >512 | >512 | 16 | 16 | 32 | 16 | 128 | 128 | – | –
18 | HHIIGGLFSAGKAIHRLIRRRRR [dN2] | >512 | 512 | 512 | 512 | >512 | >512 | 128 | 128 | – | –
19 | IIGGLFSAGKAIHRLIRRRRR [dN4] | >512 | 256 | 128 | 128 | 256 | 64 | 128 | 64 | – | –
